From ChEMBL document CHEMBL4507265 (2021)

Legend:
[1] = target: 5'-AMP-activated protein kinase catalytic subunit alpha-2 (Homo sapiens) (UniProt P54646); details: Compound concentration 1000.0 nM
[2] = target: Tyrosine-protein kinase Blk (Homo sapiens) (UniProt P51451); details: Compound concentration 1000.0 nM
[3] = target: Bone morphogenetic protein receptor type-1A (Homo sapiens) (UniProt P36894); details: Compound concentration 1000.0 nM
[4] = target: Cyclin-dependent kinase 11A (Homo sapiens) (UniProt Q9UQ88); details: Compound concentration 1000.0 nM
[5] = target: Cyclin-dependent kinase 2 (Homo sapiens) (UniProt P24941); details: Compound concentration 1000.0 nM
[6] = target: Casein kinase I isoform alpha-like (Homo sapiens) (UniProt Q8N752); details: Compound concentration 1000.0 nM
Casein kinase I isoform alpha-like (Homo sapiens), sequence (Q8N752 whole entry, canonical isoform): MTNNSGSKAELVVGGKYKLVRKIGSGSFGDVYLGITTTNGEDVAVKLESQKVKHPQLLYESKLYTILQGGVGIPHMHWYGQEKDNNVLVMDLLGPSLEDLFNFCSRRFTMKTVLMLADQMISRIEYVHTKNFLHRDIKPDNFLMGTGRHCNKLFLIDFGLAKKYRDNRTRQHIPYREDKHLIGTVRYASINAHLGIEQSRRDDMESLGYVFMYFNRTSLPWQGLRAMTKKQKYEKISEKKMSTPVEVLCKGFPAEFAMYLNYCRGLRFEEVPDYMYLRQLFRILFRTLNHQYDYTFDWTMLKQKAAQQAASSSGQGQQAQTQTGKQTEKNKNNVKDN

[7] = target: Mitogen-activated protein kinase kinase kinase 12 (Homo sapiens) (UniProt Q12852); details: Compound concentration 1000.0 nM
[8] = target: Serine/threonine-protein kinase 17A (Homo sapiens) (UniProt Q9UEE5); details: Compound concentration 1000.0 nM
[9] = test system: Epidermal growth factor receptor (Homo sapiens), P00533 [G719C]; details: Compound concentration 1000.0 nM
[10] = test system: Epidermal growth factor receptor (Homo sapiens), P00533 [G719S]; details: Compound concentration 1000.0 nM
[11] = target: Eukaryotic translation initiation factor 2-alpha kinase 1 (Homo sapiens) (UniProt Q9BQI3); details: Compound concentration 1000.0 nM
[12] = target: Ephrin type-A receptor 1 (Homo sapiens) (UniProt P21709); details: Compound concentration 1000.0 nM
[13] = target: Mitogen-activated protein kinase 3 (Homo sapiens) (UniProt P27361); details: Compound concentration 1000.0 nM
Mitogen-activated protein kinase 3 (Homo sapiens), sequence (P27361 whole entry): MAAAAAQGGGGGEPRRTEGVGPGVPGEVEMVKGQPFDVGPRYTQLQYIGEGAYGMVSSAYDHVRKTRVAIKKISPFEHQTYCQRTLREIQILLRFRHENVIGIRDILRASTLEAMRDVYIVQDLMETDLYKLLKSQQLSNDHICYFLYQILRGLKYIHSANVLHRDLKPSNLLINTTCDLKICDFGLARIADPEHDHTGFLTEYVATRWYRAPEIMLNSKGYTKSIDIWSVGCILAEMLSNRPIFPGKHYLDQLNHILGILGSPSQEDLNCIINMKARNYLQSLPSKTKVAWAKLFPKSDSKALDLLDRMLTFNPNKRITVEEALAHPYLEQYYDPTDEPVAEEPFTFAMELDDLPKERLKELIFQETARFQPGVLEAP

[14] = target: Fibroblast growth factor receptor 2 (Homo sapiens) (UniProt P21802); details: Compound concentration 1000.0 nM
[15] = test system: Receptor-type tyrosine-protein kinase FLT3 (Homo sapiens), P36888 [UNDEFINED MUTATION]; details: Compound concentration 1000.0 nM
Receptor-type tyrosine-protein kinase FLT3 (Homo sapiens), P36888 [UNDEFINED MUTATION], sequence (P36888 whole entry, looked up, change not shown): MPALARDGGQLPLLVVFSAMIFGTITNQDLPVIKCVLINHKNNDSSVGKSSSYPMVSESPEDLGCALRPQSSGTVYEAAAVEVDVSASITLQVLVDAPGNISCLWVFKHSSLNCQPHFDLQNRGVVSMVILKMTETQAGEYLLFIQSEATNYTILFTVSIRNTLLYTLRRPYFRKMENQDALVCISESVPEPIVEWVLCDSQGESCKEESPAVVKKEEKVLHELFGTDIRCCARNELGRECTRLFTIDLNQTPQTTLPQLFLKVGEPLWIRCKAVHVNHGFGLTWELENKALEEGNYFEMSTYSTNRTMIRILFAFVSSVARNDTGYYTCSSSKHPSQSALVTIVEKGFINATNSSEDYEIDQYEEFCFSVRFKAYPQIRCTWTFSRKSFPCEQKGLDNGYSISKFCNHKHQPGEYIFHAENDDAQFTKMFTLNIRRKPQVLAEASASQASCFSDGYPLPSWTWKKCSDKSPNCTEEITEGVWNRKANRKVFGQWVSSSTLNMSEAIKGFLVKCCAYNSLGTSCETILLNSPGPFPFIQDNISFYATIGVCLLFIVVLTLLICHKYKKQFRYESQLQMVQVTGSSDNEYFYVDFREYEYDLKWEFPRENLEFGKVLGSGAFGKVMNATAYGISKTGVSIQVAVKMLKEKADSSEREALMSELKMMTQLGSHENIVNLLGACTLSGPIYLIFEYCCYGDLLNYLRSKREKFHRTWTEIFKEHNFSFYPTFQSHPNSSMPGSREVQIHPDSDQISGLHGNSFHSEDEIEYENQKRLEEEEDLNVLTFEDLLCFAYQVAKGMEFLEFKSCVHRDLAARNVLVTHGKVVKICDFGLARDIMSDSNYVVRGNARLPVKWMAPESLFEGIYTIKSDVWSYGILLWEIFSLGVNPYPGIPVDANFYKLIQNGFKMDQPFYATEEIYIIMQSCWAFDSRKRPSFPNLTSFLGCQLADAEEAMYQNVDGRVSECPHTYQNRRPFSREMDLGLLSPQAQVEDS

[16] = target: G protein-coupled receptor kinase 3 (Homo sapiens) (UniProt P35626); details: Compound concentration 1000.0 nM
[17] = target: Rhodopsin kinase GRK7 (Homo sapiens) (UniProt Q8WTQ7); details: Compound concentration 1000.0 nM
[18] = target: Tyrosine-protein kinase JAK1 (Homo sapiens) (UniProt P23458); details: Compound concentration 1000.0 nM
Tyrosine-protein kinase JAK1 (Homo sapiens), sequence (P23458 whole entry): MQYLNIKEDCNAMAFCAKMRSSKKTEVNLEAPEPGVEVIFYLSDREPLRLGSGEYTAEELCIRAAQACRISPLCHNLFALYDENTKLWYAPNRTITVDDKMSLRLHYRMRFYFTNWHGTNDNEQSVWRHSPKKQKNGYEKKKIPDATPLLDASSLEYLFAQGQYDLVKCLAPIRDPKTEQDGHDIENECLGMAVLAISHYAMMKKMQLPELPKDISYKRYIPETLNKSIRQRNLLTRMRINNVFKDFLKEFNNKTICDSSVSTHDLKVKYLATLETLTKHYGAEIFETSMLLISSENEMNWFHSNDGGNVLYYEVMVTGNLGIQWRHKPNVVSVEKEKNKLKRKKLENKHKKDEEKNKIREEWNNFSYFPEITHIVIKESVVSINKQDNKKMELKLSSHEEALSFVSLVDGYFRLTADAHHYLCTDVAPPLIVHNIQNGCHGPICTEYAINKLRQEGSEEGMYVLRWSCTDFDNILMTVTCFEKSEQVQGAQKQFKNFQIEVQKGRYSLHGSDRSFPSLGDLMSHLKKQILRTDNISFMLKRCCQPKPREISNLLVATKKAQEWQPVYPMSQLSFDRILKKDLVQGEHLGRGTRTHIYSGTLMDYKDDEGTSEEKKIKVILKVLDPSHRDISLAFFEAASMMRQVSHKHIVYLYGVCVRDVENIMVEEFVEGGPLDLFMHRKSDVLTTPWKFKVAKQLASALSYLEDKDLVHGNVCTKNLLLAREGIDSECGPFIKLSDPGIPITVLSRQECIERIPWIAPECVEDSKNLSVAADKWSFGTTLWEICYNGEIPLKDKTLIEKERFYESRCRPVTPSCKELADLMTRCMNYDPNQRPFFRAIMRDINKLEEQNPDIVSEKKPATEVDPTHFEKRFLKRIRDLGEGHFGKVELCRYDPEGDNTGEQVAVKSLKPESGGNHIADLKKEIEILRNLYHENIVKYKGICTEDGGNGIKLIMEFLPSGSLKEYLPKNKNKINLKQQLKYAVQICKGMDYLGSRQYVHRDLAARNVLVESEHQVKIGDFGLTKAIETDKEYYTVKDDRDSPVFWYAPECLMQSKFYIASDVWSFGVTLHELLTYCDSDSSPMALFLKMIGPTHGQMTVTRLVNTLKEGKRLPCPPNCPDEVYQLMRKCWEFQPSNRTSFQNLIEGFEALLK

[19] = target: Tyrosine-protein kinase JAK1 (Homo sapiens) (UniProt P23458); details: Compound concentration 1000.0 nM; remark: listed apart in the source
[20] = target: Mitogen-activated protein kinase kinase kinase 10 (Homo sapiens) (UniProt Q02779); details: Compound concentration 1000.0 nM
[21] = target: Serine/threonine-protein kinase Nek2 (Homo sapiens) (UniProt P51955); details: Compound concentration 1000.0 nM
[22] = target: Mitogen-activated protein kinase 11 (Homo sapiens) (UniProt Q15759); details: Compound concentration 1000.0 nM
[23] = target: Serine/threonine-protein kinase PLK4 (Homo sapiens) (UniProt O00444); details: Compound concentration 1000.0 nM
[24] = target: Protein kinase C iota type (Homo sapiens) (UniProt P41743); details: Compound concentration 1000.0 nM
[25] = target: Protein kinase C theta type (Homo sapiens) (UniProt Q04759); details: Compound concentration 1000.0 nM
[26] = target: Rho-associated protein kinase 2 (Homo sapiens) (UniProt O75116); details: Compound concentration 1000.0 nM
Rho-associated protein kinase 2 (Homo sapiens), sequence (O75116 whole entry, looked up): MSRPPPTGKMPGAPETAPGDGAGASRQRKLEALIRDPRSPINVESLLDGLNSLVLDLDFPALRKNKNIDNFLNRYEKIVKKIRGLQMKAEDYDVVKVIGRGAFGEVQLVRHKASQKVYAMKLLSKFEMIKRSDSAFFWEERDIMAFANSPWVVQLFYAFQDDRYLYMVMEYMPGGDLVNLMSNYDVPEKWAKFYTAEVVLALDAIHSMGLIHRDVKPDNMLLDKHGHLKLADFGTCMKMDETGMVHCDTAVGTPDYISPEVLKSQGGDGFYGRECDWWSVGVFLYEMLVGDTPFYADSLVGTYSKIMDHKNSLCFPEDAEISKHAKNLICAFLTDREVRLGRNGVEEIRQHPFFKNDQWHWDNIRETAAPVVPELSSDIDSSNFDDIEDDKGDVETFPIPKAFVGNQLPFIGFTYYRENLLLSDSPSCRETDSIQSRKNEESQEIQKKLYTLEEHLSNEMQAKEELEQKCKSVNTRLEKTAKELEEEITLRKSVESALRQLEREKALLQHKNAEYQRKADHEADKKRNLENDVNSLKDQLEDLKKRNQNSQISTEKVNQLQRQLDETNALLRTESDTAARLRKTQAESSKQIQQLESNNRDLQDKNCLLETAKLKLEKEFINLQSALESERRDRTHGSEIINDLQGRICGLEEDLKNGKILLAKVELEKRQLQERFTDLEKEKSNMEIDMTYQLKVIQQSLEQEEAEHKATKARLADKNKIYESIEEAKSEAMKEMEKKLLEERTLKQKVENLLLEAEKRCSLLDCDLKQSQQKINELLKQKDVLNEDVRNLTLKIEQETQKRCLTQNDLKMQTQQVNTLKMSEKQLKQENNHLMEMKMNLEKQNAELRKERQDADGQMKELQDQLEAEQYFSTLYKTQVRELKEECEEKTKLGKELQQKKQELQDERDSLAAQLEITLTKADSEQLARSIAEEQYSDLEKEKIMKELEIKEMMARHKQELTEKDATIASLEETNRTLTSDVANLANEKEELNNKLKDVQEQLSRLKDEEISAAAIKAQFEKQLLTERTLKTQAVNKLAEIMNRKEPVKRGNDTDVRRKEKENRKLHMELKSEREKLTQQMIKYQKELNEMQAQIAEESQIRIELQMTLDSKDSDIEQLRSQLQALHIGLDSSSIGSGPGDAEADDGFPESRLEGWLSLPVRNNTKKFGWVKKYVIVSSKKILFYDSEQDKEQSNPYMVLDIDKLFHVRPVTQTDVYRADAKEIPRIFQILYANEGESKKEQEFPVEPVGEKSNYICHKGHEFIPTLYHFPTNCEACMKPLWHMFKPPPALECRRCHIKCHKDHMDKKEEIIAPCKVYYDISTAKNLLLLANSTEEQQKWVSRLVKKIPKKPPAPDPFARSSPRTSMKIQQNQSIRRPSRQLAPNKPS

[27] = target: Serine/threonine-protein kinase SIK1 (Homo sapiens) (UniProt P57059); details: Compound concentration 1000.0 nM
[28] = target: Serine/threonine-protein kinase 33 (Homo sapiens) (UniProt Q9BYT3); details: Compound concentration 1000.0 nM
[29] = target: Serine/threonine-protein kinase ULK1 (Homo sapiens) (UniProt O75385); details: Compound concentration 1000.0 nM
[30] = target: Wee1-like protein kinase (Homo sapiens) (UniProt P30291); details: Compound concentration 1000.0 nM
[31] = target: Serine/threonine-protein kinase WNK4 (Homo sapiens) (UniProt Q96J92); details: Compound concentration 1000.0 nM
[32] = target: T1, 5-hydroxytryptamine receptor 1A (Homo sapiens) (UniProt P08908); details: Compound concentration 10.0 uM
T1 sequence (whole entry): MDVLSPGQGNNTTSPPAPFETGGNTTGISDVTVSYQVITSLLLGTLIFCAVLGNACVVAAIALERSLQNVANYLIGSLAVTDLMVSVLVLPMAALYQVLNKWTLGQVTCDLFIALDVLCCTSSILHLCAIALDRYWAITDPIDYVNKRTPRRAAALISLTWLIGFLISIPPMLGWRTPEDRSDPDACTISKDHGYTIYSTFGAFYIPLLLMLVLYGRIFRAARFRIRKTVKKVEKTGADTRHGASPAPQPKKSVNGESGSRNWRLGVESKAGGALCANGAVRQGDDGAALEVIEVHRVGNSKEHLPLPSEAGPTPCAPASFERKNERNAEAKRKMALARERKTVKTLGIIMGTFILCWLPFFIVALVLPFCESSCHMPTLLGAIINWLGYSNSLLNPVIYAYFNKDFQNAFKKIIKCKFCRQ

[33] = target: T2, D(4) dopamine receptor (Homo sapiens) (UniProt P21917); details: Compound concentration 10.0 uM
T2 sequence (whole entry): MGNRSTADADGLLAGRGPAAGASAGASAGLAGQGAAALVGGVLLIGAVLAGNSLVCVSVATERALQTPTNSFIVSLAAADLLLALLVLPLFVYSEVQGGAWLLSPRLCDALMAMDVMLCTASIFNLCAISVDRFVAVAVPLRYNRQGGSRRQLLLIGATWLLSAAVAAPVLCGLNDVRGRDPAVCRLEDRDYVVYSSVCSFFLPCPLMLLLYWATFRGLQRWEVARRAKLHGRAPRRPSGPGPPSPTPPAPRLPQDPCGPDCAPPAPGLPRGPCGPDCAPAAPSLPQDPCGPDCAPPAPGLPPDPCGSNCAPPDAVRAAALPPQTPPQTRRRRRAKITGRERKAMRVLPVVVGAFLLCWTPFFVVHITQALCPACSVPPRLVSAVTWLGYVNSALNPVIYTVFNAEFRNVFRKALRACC

[34] = target: Beta-1 adrenergic receptor (Homo sapiens) (UniProt P08588); details: Compound concentration 10.0 uM

Bone morphogenetic protein receptor type-1A (Homo sapiens), sequence (P36894 whole entry): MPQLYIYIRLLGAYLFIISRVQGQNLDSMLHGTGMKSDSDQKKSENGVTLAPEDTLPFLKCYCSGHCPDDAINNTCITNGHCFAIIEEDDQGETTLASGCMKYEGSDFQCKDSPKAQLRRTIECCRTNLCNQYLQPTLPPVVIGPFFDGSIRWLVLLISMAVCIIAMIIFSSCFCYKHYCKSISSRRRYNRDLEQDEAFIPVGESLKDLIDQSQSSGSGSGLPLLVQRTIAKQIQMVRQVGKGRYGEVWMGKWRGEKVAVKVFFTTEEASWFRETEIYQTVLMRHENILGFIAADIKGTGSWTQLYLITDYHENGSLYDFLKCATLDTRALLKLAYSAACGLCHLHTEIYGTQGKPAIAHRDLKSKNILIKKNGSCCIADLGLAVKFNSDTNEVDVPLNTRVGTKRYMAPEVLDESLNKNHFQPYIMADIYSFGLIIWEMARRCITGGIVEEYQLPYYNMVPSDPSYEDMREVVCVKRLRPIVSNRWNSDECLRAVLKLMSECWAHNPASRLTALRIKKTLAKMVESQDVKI

Compound	residual activity [1] [%]	residual activity [2] [%]	residual activity [3] [%]	residual activity [4] [%]	residual activity [5] [%]	residual activity [6] [%]	residual activity [7] [%]	residual activity [8] [%]	residual activity [9] [%]	residual activity [10] [%]	residual activity [11] [%]	residual activity [12] [%]	residual activity [13] [%]	residual activity [14] [%]	residual activity [15] [%]	residual activity [16] [%]	residual activity [17] [%]	residual activity [18] [%]	residual activity [19] [%]	residual activity [20] [%]	further results
NS(=O)(=O)c1cc(NC(=O)C2(c3ccccc3Cl)CC2)ccc1Oc1cccc(Cl)c1 [BAY-207]	87	100	90	73	82	84	100	85	90	98	95	100	76	100	100	100	100	90	76	100	residual activity [21]: 86%; residual activity [22]: 68%; residual activity [23]: 87%; residual activity [24]: 98%; residual activity [25]: 88%; residual activity [26]: 100%; residual activity [27]: 71%; residual activity [28]: 100%; residual activity [29]: 89%; residual activity [30]: 91%; residual activity [31]: 81%; inhibition [32]: 4.89%; inhibition [33]: 27%; inhibition [34]: -3.09%
NS(=O)(=O)c1cc(NC(=O)Cc2ccccc2)ccc1Oc1cccc(Cl)c1 [BAY-1797]	82	68	69	95	100	74	80	94	63	74	83	100	94	61	97	100	77	99	87	98	residual activity [21]: 89%; residual activity [22]: 100%; residual activity [23]: 92%; residual activity [24]: 93%; residual activity [25]: 74%; residual activity [26]: 98%; residual activity [27]: 93%; residual activity [28]: 100%; residual activity [29]: 88%; residual activity [30]: 75%; residual activity [31]: 0%; inhibition [32]: -1.77%; inhibition [33]: 28.4%; inhibition [34]: 14.3%
